In US11059795B2, “Androgen receptor modulators and methods for their use” (ESSA Pharma, Inc., priority 2018, dated 2021):

Legend:
androgen receptor (AR) = target: T1, androgen receptor (AR) (Homo sapiens, UniProt P10275, T878A); experiment: Androgen-induced PSA (6.1 kb)-luciferase reporter assay in LNCaP cells; assay type: cell-based; settings: LNCaP cells transfected with PSA (6.1 kb)-luciferase reporter, R1881 1 nM, 24 h; read-out: PSA-Luc IC50 Range
T1 construct: LNCaP cells were transiently transfected with the PSA (6.1 kb)-luciferase reporter for 24 h; endogenous in cells; host or cells: LNCaP
T1 sequence (P10275 1-920 T878A): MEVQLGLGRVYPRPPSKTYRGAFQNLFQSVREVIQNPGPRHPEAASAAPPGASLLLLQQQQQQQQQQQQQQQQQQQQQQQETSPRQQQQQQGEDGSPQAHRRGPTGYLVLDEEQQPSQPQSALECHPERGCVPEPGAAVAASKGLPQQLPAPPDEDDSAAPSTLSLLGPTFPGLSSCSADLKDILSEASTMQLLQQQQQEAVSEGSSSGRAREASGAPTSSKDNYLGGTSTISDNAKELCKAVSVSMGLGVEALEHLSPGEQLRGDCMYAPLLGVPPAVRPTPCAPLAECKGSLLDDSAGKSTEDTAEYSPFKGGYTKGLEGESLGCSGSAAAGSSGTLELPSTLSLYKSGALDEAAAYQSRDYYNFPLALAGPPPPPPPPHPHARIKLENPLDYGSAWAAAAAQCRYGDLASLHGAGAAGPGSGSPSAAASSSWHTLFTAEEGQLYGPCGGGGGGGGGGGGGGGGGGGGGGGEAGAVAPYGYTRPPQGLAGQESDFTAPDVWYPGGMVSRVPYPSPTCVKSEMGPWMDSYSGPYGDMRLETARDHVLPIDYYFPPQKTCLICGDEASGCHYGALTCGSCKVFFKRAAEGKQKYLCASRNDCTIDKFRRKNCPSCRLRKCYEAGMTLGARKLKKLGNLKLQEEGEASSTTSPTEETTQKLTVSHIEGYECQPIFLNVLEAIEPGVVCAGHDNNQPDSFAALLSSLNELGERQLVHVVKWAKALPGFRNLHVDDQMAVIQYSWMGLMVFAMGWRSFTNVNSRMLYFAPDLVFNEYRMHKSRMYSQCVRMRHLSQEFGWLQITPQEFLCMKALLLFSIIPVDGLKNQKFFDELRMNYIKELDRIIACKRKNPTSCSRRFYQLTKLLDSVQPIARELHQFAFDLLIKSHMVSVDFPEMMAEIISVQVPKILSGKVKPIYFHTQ
Description: The PSA (6.1 kb)-luciferase reporter contains functional AREs (androgen response elements) to which AR binds in response to androgen to induce luciferase activity.
Cells were lysed using Passive Lysis Buffer (Promega) and then collected into V-bottom 96-well tissue culture plates. Lysates were centrifuged at 4° C. for 5 minutes at 3000 rpm. To measure luminescence of LNCaP cell lysates the Firefly Luciferase Assay System (Promega) was employed, according to manufacturer's protocol. Relative luminescence units (RLU) in cell lysates were detected for 10 seconds using Promega GloMax-Multi Detection Luminometer (Promega). Values were normalized to protein content. GraphPad Prism graphing software was used to calculate IC50 values.
Comparisons between treatment and control groups were compared using Two-Way ANOVA with post-hoc Dunnett's and Tukey's tests. Differences were considered statistically significant at P values less than 0.05.

[1] = Microsomal stability assay, human liver microsomes; assay type: in vitro ADME; settings: pH 7.4, 1 μM compound, 0.5 mg/mL protein, 37° C., read-out: HLM +/− NADPH: Clint (μL/min/mg protein)
Description: Microsomal stability assay is a widely used in vitro model to characterize the metabolic conversion by phase I enzymes, such as cytochrome P450 (CYP) enzymes. Since metabolism is known to be highly variable in different species, microsomal stability assay is commonly run in multiple species. Metabolic stability of testing compound can be evaluated using human, rat, mouse, or other animal liver or intestine microsomes to predict intrinsic clearance.
The assay was carried out in 96-well microtiter plates at 37° C. Reaction mixtures (25 μL) contained a final concentration of 1 μM test compound, 0.5 mg/mL liver microsomes protein, and 1 mM NADPH and/or 1 mM UDPGA (with alamethicin) in 100 mM potassium phosphate, pH 7.4 buffer with 3 mM MgCl2. The incubation was done with N=1, but duplicate incubation at each time point can be prepared if necessary. At each of the time points (for example, 0, 15, 30, and 60 minutes), 150 μL of quench solution (100% acetonitrile with 0.1% formic acid) with internal standard was transferred to each well. Besides the zero minute controls, mixtures containing the same components except the NADPH can also be prepared as the negative control. Verapamil was included as a positive control to verify assay performance. Plates were sealed, vortexed, and centrifuged at 4° C. for 15 minutes at 4000 rpm. The supernatant is transferred to fresh plates for LC/MS/MS analysis.
Summarized conditions: [Compound]=[…], [LM]=0.5 mg/mL, [NADPH]=1 mM and/or [UDPGA]=1 mM, Buffer=100 mM Potassium Phosphate, pH 7.4 with 3 mM MgCl2, Time=0, 15, 30, and 60 min, and Temperature=37° C.
All samples were analyzed on LC/MS/MS using an AB Sciex API 4000 instrument, coupled to a Shimadzu LC-20AD LC Pump system. Analytical samples were separated using a Waters Atlantis T3 dC18 reverse phase HPLC column (20 mm×2.1 mm) at a flow rate of 0.5 mL/min. The mobile phase consisted of 0.1% formic acid in water (solvent A) and 0.1% formic acid in 100% acetonitrile (solvent B).
The extent of metabolism is calculated as the disappearance of the test compound, compared to the 0-min time incubation. Initial rates are calculated for the compound concentration and used to determine half-life (t½) values and subsequently, the intrinsic clearance (Clint). Clint=(0.693)(1/t½ (min))(g of liver/kg of body weight)(mL incubation/mg of microsomal protein)(45 mg of microsomal protein/g of liver weight)

Structure (SMILES)	IC50 (androgen receptor (AR))	microsomal CLint at 1 μM [1]
CC(C)(c1ccc(OCc2ocnc2S(C)(=O)=O)cc1)c1cnc(NCCCl)nc1 [Compound A58]	> 2 µM	12 to 48 µL/min/mg
CC(C)(c1ccc(-c2coc(CNS(C)(=O)=O)n2)cc1)c1cc(Cl)c(OCCCCl)c(Cl)c1 [Compound A21]		< 12 µL/min/mg
CC(C)(c1ccc(N2C(=O)N(N)C(C)(C)C2=O)cc1)c1cc(Cl)c(OCCCl)c(Cl)c1 [Compound B6]	> 2 µM	12 to 48 µL/min/mg
CC(C)(c1ccc(OCc2ocnc2S(C)(=O)=O)cc1)c1cc(Cl)c(OCCC(F)(F)F)c(Cl)c1 [Compound A54, 5-((4-(2-(3,5-Dichloro-4-(3,3,3-trifluoropropoxy)phenyl)propan-2-yl)phenoxy)methyl)-4-(methylsulfonyl)oxazole]	0.5 to 2 µM	< 12 µL/min/mg
CC(C)(c1ccc(OCc2cn(S(C)(=O)=O)cn2)cc1)c1cc(Cl)c(OCCCCl)c(Cl)c1 [Compound A5, 4-((4-(2-(3,5-dichloro-4-(3-chloropropoxy)phenyl)propan-2-yl)phenoxy)methyl)-1-(methylsulfonyl)-1H-imidazole]	0.5 to 2 µM	< 12 µL/min/mg
CC(C)(c1ccc(Nc2ncc(CNS(C)(=O)=O)o2)cc1)c1cc(Cl)c(OCCCl)c(Cl)c1 [Compound A75, N-((2-((4-(2-(3,5-Dichloro-4-(2-chloroethoxy)phenyl)propan-2-yl)phenyl)amino)oxazol-5-yl)methyl)methanesulfonamide]	0.5 to 2 µM	< 12 µL/min/mg
CC(C)(c1cc(Cl)c(OCCCl)c(Cl)c1)c1ccc(OCc2ocnc2S(C)(=O)=O)c(C(N)=O)c1 [Compound A76]	0.5 to 2 µM	< 12 µL/min/mg
CC(C)(c1ccc(-c2cc(CNS(C)(=O)=O)on2)cc1)c1cc(Cl)c(OCCCCl)c(Cl)c1 [Compound A22, N-((3-(4-(2-(3,5-dichloro-4-(3-chloropropoxy)phenyl)propan-2-yl)phenyl) Isoxazol-5-yl)methyl)methanesulfonamide]	> 2 µM	< 12 µL/min/mg
CC(C)(c1ccc(OCc2ocnc2S(C)(=O)=O)cc1)c1cc(Cl)c(NCCCl)c(Cl)c1 [Compound A50]	0.5 to 2 µM	12 to 48 µL/min/mg
CC(=O)Nc1cc(COc2ccc(C(C)(C)c3cc(Cl)c(OCCCCl)c(Cl)c3)cc2)on1 [Compound A23]	> 2 µM	12 to 48 µL/min/mg
CC(C)(c1ccc(OCCCl)c(Cl)c1)c1ccc(OCc2ocnc2S(C)(=O)=O)c(C#N)c1 [Compound A62]	> 2 µM	< 12 µL/min/mg
CC(C)(c1ccc(OC2CCc3cnc(NS(C)(=O)=O)nc32)cc1)c1cc(Cl)c(OCCCl)c(C#N)c1 (stereo not drawn) [Compound A203]	0.5 to 2 µM	
CSc1nnc(COc2ccc(C(C)(C)c3cc(Cl)c(OCCCCl)c(Cl)c3)cc2)o1 [Compound A17]	0.5 to 2 µM	< 12 µL/min/mg
CCOc1c(Cl)cc(C(C)(C)c2ccc(OCc3ocnc3S(C)(=O)=O)cc2)cc1Cl [Compound A52]	> 2 µM	< 12 µL/min/mg
CC(C)(c1ccc(-n2cnc(CNS(C)(=O)=O)c2)cc1)c1cc(Cl)c(OCCCl)c(Cl)c1 [Compound A24]	0.5 to 2 µM	< 12 µL/min/mg
CC(C)(c1ccc(OCc2n[nH]cc2NS(=O)(=O)C(F)(F)F)cc1)c1cc(Cl)c(OCCCl)c(Cl)c1 [Compound A106]	< 0.5 µM	12 to 48 µL/min/mg
CC(C)(c1ccc(OCc2noc(S(C)(=O)=O)n2)cc1)c1cc(Cl)c(OCCCl)c(C#N)c1 [Compound A151]	0.5 to 2 µM	
Cc1nc(-c2ccc(C(C)(C)c3cc(Cl)c(OCCCCl)c(Cl)c3)cc2)co1 [Compound A64]	> 2 µM	≥ 48 µL/min/mg
CC(C)(c1ccc(OCc2ccnc(NS(C)(=O)=O)n2)cc1)c1cc(F)c(OCCCl)c(C#N)c1 [Compound A205]	0.5 to 2 µM	

Next, values leading:

IC50 (androgen receptor (AR))	microsomal CLint at 1 μM [1]	Structure (SMILES)
> 2 µM	< 12 µL/min/mg	CC(C)(c1ccc(-c2c[nH]c(CNS(C)(=O)=O)n2)cc1)c1cc(Cl)c(OCCCCl)c(Cl)c1 [Compound A25]
0.5 to 2 µM	12 to 48 µL/min/mg	CC(C)(c1ccc(OCc2[nH]ncc2NS(C)(=O)=O)cc1)c1cc(Cl)c(OCCCl)c(Cl)c1 [Compound A40, N-[3-[[4-[1-[3,5-Dichloro-4-(2-chloroethoxy)phenyl]-1-methyl-ethyl]phenoxy]methyl]-1H-pyrazol-4-yl]methanesulfonamide]
0.5 to 2 µM		CC(C)(c1ccc(OCc2nc(NS(C)(=O)=O)nc3c2CCNC3)cc1)c1cc(Cl)c(OCCCl)c(C#N)c1 [Compound A191]
> 2 µM	≥ 48 µL/min/mg	CC(C)(c1ccc(OCc2ncncc2NS(C)(=O)=O)cc1)c1cc(Cl)c(OCCCl)c(Cl)c1 [Compound A41, N-(4-((4-(2-(3,5-Dichloro-4-(2-chloroethoxy)phenyl)propan-2-yl)phenoxy)methyl)pyrimidin-5-yl)methanesulfonamide]
> 2 µM	≥ 48 µL/min/mg	CC(C)(c1ccc(OCc2nnc(O)o2)cc1)c1cc(Cl)c(OCCCCl)c(Cl)c1 [Compound A18]
< 0.5 µM	12 to 48 µL/min/mg	CC(C)(C)N(c1ccc(OCc2ocnc2S(C)(=O)=O)cc1)c1cc(Cl)c(OCCCl)c(Cl)c1 [Compound A31, N-tert-Butyl-3,5-dichloro-4-(2-chloroethoxy)-N-[4-[(4-methylsulfonyloxazol-5-yl)-methoxy]-phenyl]aniline]
> 2 µM	≥ 48 µL/min/mg	CC(C)(c1ccc(OCc2nnc(S(C)(=O)=O)o2)cc1)c1cc(Cl)c(OCCCCl)c(Cl)c1 [Compound A7, 2-((4-(2-(3,5-dichloro-4-(3-chloropropoxy)phenyl)propan-2-yl)phenoxy)methyl)-5-(methylsulfonyl)-1,3,4-oxadiazole]
> 2 µM	12 to 48 µL/min/mg	C[C@@](O)(c1ccc(OCc2ocnc2S(C)(=O)=O)cc1)c1cc(Cl)c(OCCCl)c(C#N)c1 [Compound A107]
> 2 µM	< 12 µL/min/mg	CC(C)(c1ccc(OCc2ocnc2S(C)(=O)=O)cc1)c1cc(Cl)c(OCCN)c(Cl)c1 [Compound A53]
